Tests used:
[1] = Quantum yield in the solid state; assay type: physicochemical
From the text: IVPI-2 is able to stain mitochondria in healthy live cancer cells. However, when Δψm decreases, IVPI-2 migrates into nucleolus. Since IVPI-2 is target-changeable according to the change of mitochondrial physiology, the chemical structure of IVPI-2 was modified in order to enhance the mitochondria to nucleolus migration. Iodide ion is a well-known effective fluorescent quencher due to its heavy-atom effect. The quantum yield of IVP-02 in the solid state is 4.3%, which is about 3 times than that of IVPI-02 (1.3%). An Exemplary synthetic route to certain embodiments of the compounds described herein is depicted in Scheme 1.

A549 cells = test: Mitochondrion-nucleolus migration on CCCP treatment, A549 cells; assay type: cell-based, human; details: for migration back to mitochondria after removal of CCCP: A549, CCCP removed, fresh medium 5 min; for migration from mitochondria to nucleolus after addition of CCCP: A549, pre-stained 2 μM 30 min, 20 μM CCCP 5 min
Protocol: FIG. 15 Live A549 cells (A) and live A549 co-cultured with COS 7 cells, live HeLa co-cultured with COS7 cells (B) were pre-stained with 2 μM IVP-02 for 30 min, and treated with 20 μM CCCP for 5 min. Then CCCP was removed away and fresh culture medium was added for another 5 min. λex=488 nm, λem=500-650 nm. Scale bar=20 μm.
FIG. 18 Live A549 cells were pre-stained with 2 μM IVP-04, 22, 42, 06, 62 for 30 min, and treated with 20 μM CCCP for 5 min. Then CCCP was removed away and fresh culture medium was added for another 5 min, respectively. λex=488 nm, λem=500-650 nm. Scale bar=20 μm.
(§1) Monitoring cell viability is a highly valuable task for the fundamental researches in biology, pathology, and medicine. Then we investigated whether IVP-02 could monitor cell viability. Δψm is a very important indicator to characterize cell viability. With the loss of cell viability, Δψm would decrease, while with the recovery of cell viability, Δψm would also recover to the normal level. […] Carbonyl cyanide m-chlorophenyl hydrazone (CCCP) is a type of protonophore and can cause rapid acidification of mitochondria by collapsing Δψm. Cancer cells A549 were pre-stained with IVP-02 for 30 min. In FIG. 15A, in the beginning, IVP-02 stained mitochondria clearly. […] Hydrogen peroxide (H2O2) can inhibit the oxidation respiratory chain that would cause the loss of cell viability. Then live A549 and HeLa cells were pre-stained with IVP-02, and treated with 10 mM H2O2.
(§2) In addition to IVP-02, we further investigated whether other IVP molecules could monitor the viability of cancer cells through mitochondrion-nucleolus migration was investigated. A549 cells were pre-stained with IVP-04, 22, 42, 06, and 62, respectively, and then CCCP was added.

[2] = test system: cancer cells (A549 and HeLa) co-cultured with normal cells (COS7 and HLF); test: CLSM imaging of cancer cells co-cultured with normal cells; assay type: cell-based; details: A549 co-cultured with COS7, 2 μM, 30 min
Protocol: (§3) FIG. 5 CLSM images of live cancer cells (A549 and HeLa) co-cultured with normal cells (COS7 and HLF) (A), and the images of A549 and HLF cells seeded on different cover glasses (Scale bar=20 μm) (B) stained with 2 μM IVP-02 for 30 min (Scale bar=50 μm), respectively. λex=488 nm, λem=500-650 nm.
(§4) FIG. 10 CLSM images of live cancer cells (A549) co-cultured with normal cells (COS7) (A), and the images of A549 and HLF cells seeded on different cover glasses Scale bar=20 μm (B) stained with 2 μM IVP-02, 04, 06, 22, 42, and 62 for 30 min Scale bar=50 μm, respectively. (The first column in B is the same as FIG. 3B) λex=488 nm, λem=500-650 nm.
FIG. 11 CLSM images of live cancer cells (HeLa) co-cultured with normal cells (COS7), stained with 2 μM IVP-02, 04, 06, 22, 42, and 62 for 30 min, respectively. λex=488 nm, λem=500-650 nm. Scale bar=20 μm.
FIG. 12 CLSM images of live cancer cells (A549) co-cultured with normal cells (HLF), stained with 2 μM IVP-02, 04, 06, 22, 42, and 62 for 30 min, respectively. λex=488 nm, λem=500-650 nm. Scale bar=20 μm.
(§5) The bioimaging properties of IVP-02 in live cells were investigated by confocal laser scanning microscopy (CLSM). Cancer cells (A549 and HeLa) and normal cells (COS7 and HLF) were stained with IVP-02, respectively. […] So IVP-02 holds the high potential to differentiate cancer and normal cells. To verify this speculation, cancer and normal cells were co-cultured and stained with IVP-02. […] To precisely confirm the selectivity of IVP-02 to cancer cells, cancer cells A549 and normal cells HLF (A549 and HLF are both human lung cells) were seeded on different cover glasses, respectively. Then the two cover glasses were put in the same dish and stained with IVP-02 at the same time.
(§6) Cancer cells A549 co-cultured with normal cells COS7 were stained with these molecules, respectively. […] Then HeLa cells co-cultured with COS7 cells (FIG. 11), and A549 cells co-cultured with HLF cells (FIG. 12) were also stained with these molecules, the results were similar with that in A549 cells co-cultured with COS7 cells. In addition to co-culturing, A549 cells and HLF cells were also seeded on different cover glasses and stained with these molecules. […] Based on the imaging results above, it can be concluded that the selectivity of these IVP molecules to cancer cells is also based on the length of alkyl chain at pyridinium salt side. Lengthening the alkyl chain at the pyridinium salt side will eliminate the selectivity to cancer cells.

HeLa cells = test: Mitochondrion-nucleolus migration on CCCP treatment, HeLa cells; assay type: cell-based; details: pre-stained 2 μM 30 min, 20 μM CCCP 5 min
Protocol: FIG. 16 Live HeLa cells were pre-stained with 2 μM IVP-02 for 30 min, and treated with 20 μM CCCP for 5 min. Then CCCP was removed away and fresh culture medium was added for another 5 min. λex=488 nm, λem=500-650 nm. Scale bar=20 μm.
FIG. 19 Live HeLa cells were pre-stained with 2 μM IVP-04, 22, 42, 06, 62 for 30 min, and treated with 20 μM CCCP for 5 min. Then CCCP was removed away and fresh culture medium was added for another 5 min, respectively. λex=488 nm, λem=500-650 nm. Scale bar=20 μm.
as §1, §2

[3] = test system: mitochondria in HeLa and A549 cells; test: Co-stain with mitochondrial probe MitoTracker Deep Red FM (MTDR); assay type: cell-based; details: A549 and HeLa, 2 μM dye, co-stain 0.2 μM MTDR
Protocol: FIG. 6 CLSM images of live HeLa and A549 cells stained with 2 μM IVP-02 and 0.2 μM MTDR, respectively. IVP-02: λex=488 nm, λem=500-650 nm; MTDR: λex=640 nm, λem=650-700 nm. Scale bar=20 μm.
In the above pictures, filamentous structures in cytoplasm of cancer cells were observed, which were typical morphology of mitochondria. Then co-stain experiments with commercial mitochondrial probe MitoTracker™ Deep Red FM (MTDR) were carried out (FIG. 6).
It was speculated that the membrane permeability of the probe was a key factor for its selectivity to cancer cells, since the plasma membrane of cancer cells was reported to be more permeable than normal cells. Consequently, IVP-02 was modified by lengthening the alkyl chain at the pyridine salt side and indole side, respectively, to tune the membrane permeability. The synthetic route to these new IVP molecules is depicted in Scheme 1. Their chemical structures were fully characterized by ^1H NMR, ^13C NMR, and ^19F NMR. Then cancer cells A549 were stained with the five new molecules, respectively. […] The co-stain experiments with MTDR also confirmed their location in mitochondria in A549 cells in FIG. 7C. In addition to A549 cells, the same experiments were also carried in HeLa cells (FIGS. 8 and 9).

A549 and HLF cells = test: CLSM imaging of A549 and HLF cells seeded on different cover glasses in the same dish; assay type: cell-based, human; details: 2 μM, 30 min
Protocol: as §3, §4, §5, §6

RNA = RNA fluorescence titration, Scatchard equation; assay type: binding; details: comparison in words
From the text: FIG. 20 (A) Fluorescence titration (left) of IVP-02 with RNA and the fitted curve (right) according to Scatchard equation. (B) The binding mode of IVP-02 to RNA. (C) Binding constant (k) and binding energy (E) of IVP molecules to RNA.
FIG. 21 Fluorescence titration (left) of IVP-04, 22, 42, 06, and 62 with RNA and the fitted curve (middle) according to Scatchard equation, and the binding mode (right) of them to RNA.
Why IVP-06 and 62 cannot stain the nucleolus in cancer cells to a significant extent? On one hand, when IVP molecules located in mitochondria, in addition to the electrostatic interaction between the cation and inner membrane negative charge of mitochondria, the hydrophobic interaction between alkyl chain and phospholipids also existed. When Δψm decreased, although the electrostatic interaction weakened, the hydrophobic interaction still remained. IVP-06 and 62 have longer alkyl chain than the other four IVP molecules, so the hydrophobic interaction between IVP-06 and 62 and phospholipids is stronger than that of the other four IVP molecules. […] In FIGS. 20A and 21, with the increase of RNA concentration, the fluorescence intensity of all the molecules increases. […] In FIG. 20B and FIG. 21, IVP molecules bound to the minor grooves of RNA, and the binding energy (E) was calculated and summarized in FIG. 20C.

| SMILES | quantum yield [1] [%] | migration back to mitochondria after removal of CCCP (A549 cells) | migration from mitochondria to nucleolus after addition of CCCP (A549 cells) | staining of co-cultured cancer and normal cells [2] | nucleolus staining after addition of CCCP (HeLa cells) | mitochondrial staining in cancer cells [3] | staining of A549 and HLF cells on different cover glasses (A549 and HLF cells) | binding constant (k) to RNA (RNA) |
| --- | --- | --- | --- | --- | --- | --- | --- | --- |
| CC[n+]1ccc(/C=C/c2c[nH]c3ccccc23)cc1.[I-] [IVPI-02, reference compound] | 1.3 | – | – | – | – | – | – | – |
| CCn1cc(/C=C/c2cc[n+](CC)cc2)c2ccccc21 [IVP-22] | – | could migrate back in mitochondria | could enter nucleus and stain nucleolus | only stain A549 cells | could stain nucleolus | can selectively stain mitochondria in cancer cells | – | – |
| CCCC[n+]1ccc(/C=C/c2c[nH]c3ccccc23)cc1 [IVP-04] | – | could migrate back in mitochondria | could enter nucleus and stain nucleolus | can stain both A549 and COS7 cells | could stain nucleolus | can selectively stain mitochondria in cancer cells | could stain both A549 and HLF cells | – |
| CCCCCCn1cc(/C=C/c2cc[n+](CC)cc2)c2ccccc21 [IVP-62] | – | – | did not enter the nuclear to a substantial degree | only stain A549 cells | cannot | can selectively stain mitochondria in cancer cells | – | lower than that of IVP-02, 04, 22, and 42 |
| CCCCCC[n+]1ccc(/C=C/c2c[nH]c3ccccc23)cc1 [IVP-06] | – | – | did not enter the nuclear to a substantial degree | can stain both A549 and COS7 cells | cannot | can selectively stain mitochondria in cancer cells | could stain both A549 and HLF cells | lower than that of IVP-02, 04, 22, and 42 |
| CCCCn1cc(/C=C/c2cc[n+](CC)cc2)c2ccccc21 [IVP-42] | – | could migrate back in mitochondria | could enter nucleus and stain nucleolus | only stain A549 cells | could stain nucleolus | can selectively stain mitochondria in cancer cells | – | – |

Source: patent US11965100B2, “Aggregation-induced emission luminogens useful for cancer cell discrimination and monitoring” (The Hong Kong University of Science and Technology, priority 2020, dated 2024)
